Results reported in patent publication US20130130909A1, “DCMU RESISTANCE IN NANNOCHLOROPSIS” (priority 2011, published 2013).

Experiments:
[1] = tested on: algae of genus Nannochloropsis ("W2"); test: DCMU incubation and fluorescence under low actinic light, Nannochloropsis culture; assay type: cell-based; settings: 100 nanomolar DCMU
Procedure: Typically, DCMU is instantaneously efficacious at concentrations in the 0.1 micromolar to 50 micromolar range. The inventors herein discovered that algae of the genus Nannochloropsis, however, generally requires higher concentrations and relatively lengthy incubation periods for the effects of DCMU to take place.
(§1) FIG. 3 (“FIG. 3”) is a graph of relative fluorescence rise versus percentage contaminating species for the algae of genus Chlorella as referred to in FIG. 2. In FIG. 3, the impact of the actinic light is seen in the relative fluorescence rise to the maximum fluorescence yield observed during an intense saturating pulse, during the low level actinic light treatment for the Chlorella culture, the same rise being absent from the Nannochloropsis culture.

[2] = tested on: weed algae of genus Tetraselmis; test: DCMU administered to 1 million liter open pond raceway systems with Nannochloropsis cultures invaded by Tetraselmis; assay type: in vivo
Procedure: The inventors utilized commercially available DCMU at a field research site to kill the persistent weed algae of genus Tetraselmis. DCMU was administered to six 1 million liter open pond raceway systems wherein Nannochloropis cultures were cultivated at a density of approximately 270 milligrams per liter. Tetraselmis invasion in the ponds is shown in FIG. 6, and is quantified in Table 2 as a percentage of mass. The higher the percentage of mass, the higher the Tetraselmis invasion. The six 1 million liter open pond raceway systems are denoted in FIG. 6, Table 1, and Table 2 as Pond A1, Pond A2, Pond A3, Pond B1, Pond B2, and Pond B3.
Consequently, as little as 100 grams, and as much as 400 grams, were needed. The commercial DCMU source was 90% DCMU by mass, so 90 grams and 360 grams effective amounts of DCMU (M.W. 233 amu) in 1 million liters of volume converts to DCMU concentrations of 0.38 micromolar and 1.55 micromolar, respectively.
Note “D” denotes the dumping of the contents of the pond.

algae of genus Chlorella = test: DCMU and fluorescence under low actinic light, Chlorella culture; assay type: cell-based; settings: 100 nanomolar DCMU
From the text: as §1

[3] = corrected for 90% DCMU by mass, 1 million liters

CN(C)C(=O)Nc1ccc(Cl)c(Cl)c1 [DCMU, 3-(3,4-dichlorophenyl)-1,1-dimethylurea]
resistance of Nannochloropsis to DCMU ([1]; 24 hour incubation period): completely resistant | effect of actinic light on PSII reaction centers in presence of DCMU, Nannochloropsis ([1]; 50 micromolar quanta m^-2 s^-1 actinic light, FIG. 1): barely has an effect | effective DCMU concentration, lowest ([2]; 90 grams in 1 million liters): 0.38 µM | effective DCMU concentration, highest ([2]; 360 grams in 1 million liters): 1.55 µM | effective amount of DCMU, highest [2, 3]: 360 grams | effective amount of DCMU, lowest [2, 3]: 90 grams | effect of actinic light on PSII reaction centers in presence of DCMU, Chlorella (algae of genus Chlorella; 50 micromolar quanta m^-2 s^-1 actinic light, FIG. 2): completely closes PSII reaction centers | herbicidal effect on Chlorella (algae of genus Chlorella; Chlorella isolated from an invaded pond): strong herbicidal effect
